Assay results from ChEMBL document CHEMBL3046051, “A novel approach to the synthesis of 1,2,3-triazoles and their SAR studies” (2010).

Tests used:
Type in all cases: functional
Aspergillus flavus [1] = assay: Antifungal activity against Aspergillus flavus 871 by paper disk method relative to voriconazole
Candida albicans [2] = assay: Antifungal activity against Candida albicans 227 by paper disk method relative to voriconazole
Wickerhamiella azyma [3] = assay: Antifungal activity against Candida azyma 1452 by paper disk method relative to voriconazole
Aspergillus niger [4] = assay: Antifungal activity against Aspergillus niger 281 by paper disk method relative to voriconazole
Candida albicans [5] = assay: Antifungal activity against Candida albicans 227 by paper disk method
Aspergillus niger [6] = assay: Antifungal activity against Aspergillus niger 281 by paper disk method
Aspergillus flavus [7] = assay: Antifungal activity against Aspergillus flavus 871 by paper disk method
Wickerhamiella azyma [8] = assay: Antifungal activity against Candida azyma 1452 by paper disk method

Row | Compound | inhibition (INH) (Aspergillus flavus [1]) [%] | inhibition (INH) (Candida albicans [2]) [%] | inhibition (INH) (Wickerhamiella azyma [3]) [%] | inhibition (INH) (Aspergillus niger [4]) [%] | inhibition zone (IZ) (Candida albicans [5]) [mm] | inhibition zone (IZ) (Aspergillus niger [6]) [mm] | inhibition zone (IZ) (Aspergillus flavus [7]) [mm] | inhibition zone (IZ) (Wickerhamiella azyma [8]) [mm]
1 | C=CN1C(C)=C(C(C)=O)NN1c1ccccc1 | -13.33 | -31.25 | -26.67 | -33.33 | – | – | – | –
2 | C=CN1C(C)=C(C(C)=O)NN1c1cccc(Cl)c1 | -73.33 | -93.75 | -86.67 | -100 | – | – | – | –
3 | C=CN1C(C)=C(C(C)=O)NN1c1cccc(O)c1 | 40 | 18.75 | 26.67 | 11.11 | – | – | – | –
4 | C=CN1C(C)=C(C(C)=O)NN1c1ccc(O)cc1 | 46.67 | 25 | 33.33 | 16.67 | – | – | – | –
5 | C=CN1C(C)=C(C(C)=O)NN1c1ccc(C(=O)O)cc1 | 33.33 | 6.25 | 6.67 | -11.11 | – | – | – | –
6 | C=CN1C(C)=C(C(C)=O)NN1c1cccc(C)c1 | -46.67 | -62.5 | -60 | -72.22 | – | – | – | –
7 | C=CN1C(C)=C(C(C)=O)NN1c1cccc([N+](=O)[O-])c1 | 13.33 | -6.25 | 0 | -33.33 | – | – | – | –
8 | C=CN1C(C)=C(C(C)=O)NN1c1ccc([N+](=O)[O-])cc1 | 20 | 0 | 6.67 | -27.78 | – | – | – | –
9 | C=CN1C(C)=C(C(C)=O)NN1c1ccc(C)cc1 | -40 | -56.25 | -53.33 | -66.67 | – | – | – | –
10 | C=CN1C(C)=C(C(C)=O)NN1c1ccc(Cl)cc1 | -66.67 | -87.5 | -80 | -94.44 | – | – | – | –
11 | C=CN1C(C)=C(C(C)=O)NN1c1cccc(OC)c1 | -26.67 | -43.75 | -40 | -50 | – | – | – | –
12 | C=CN1C(C)=C(C(C)=O)NN1c1ccc(OC)cc1 | -20 | -37.5 | -33.33 | -44.44 | – | – | – | –
13 | C[C@@H](c1ncncc1F)[C@](O)(Cn1cncn1)c1ccc(F)cc1F [VORICONAZOLE] | – | – | – | – | 16 | 18 | 15 | 15
